Laboratory results taken from patent US6528528B2 (Warner-Lambert Company, priority 1997, dated 2003).

Biological target: T1, rabbit reticulocyte 15-LO (Oryctolagus cuniculus, UniProt P12530)
T1 construct: Fifteen-lipoxygenase was obtained from phenylhydrazine-treated rabbits and purified per the method of Rapoport; from tissue; host or cells: reticulocytes of phenylhydrazine-treated rabbits
T1 sequence (P12530 1-663): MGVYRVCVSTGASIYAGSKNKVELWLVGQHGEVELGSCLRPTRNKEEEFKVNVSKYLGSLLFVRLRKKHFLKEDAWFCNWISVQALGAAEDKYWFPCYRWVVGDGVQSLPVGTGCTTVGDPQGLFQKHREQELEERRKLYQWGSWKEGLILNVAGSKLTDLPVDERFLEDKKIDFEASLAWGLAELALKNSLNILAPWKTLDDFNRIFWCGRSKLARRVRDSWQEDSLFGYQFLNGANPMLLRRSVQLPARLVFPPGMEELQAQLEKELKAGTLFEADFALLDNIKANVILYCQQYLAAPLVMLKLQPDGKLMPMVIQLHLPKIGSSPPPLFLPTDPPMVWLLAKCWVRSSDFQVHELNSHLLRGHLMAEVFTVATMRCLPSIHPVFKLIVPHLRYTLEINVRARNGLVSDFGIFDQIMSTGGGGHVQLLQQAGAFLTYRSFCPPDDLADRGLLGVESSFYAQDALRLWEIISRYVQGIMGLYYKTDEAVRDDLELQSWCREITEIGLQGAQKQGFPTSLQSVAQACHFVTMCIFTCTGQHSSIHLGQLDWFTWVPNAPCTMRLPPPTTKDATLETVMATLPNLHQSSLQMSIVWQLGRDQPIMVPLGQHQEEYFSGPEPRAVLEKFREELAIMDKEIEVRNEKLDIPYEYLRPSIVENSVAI
Experiment: Rabbit Reticulocyte 15-LO Assay (h15LO)
Format: biochemical
Conditions: for h15LO, value given as bare %: concentration not given; for IC50: 2U rabbit reticulocyte 15-LO, 174 μM linoleic acid, 15 minutes at 4° C.
Description: Rabbit Reticulocyte 15-LO Assay (h15LO)
The present 15-LO assay takes advantage of the ability of 15-LO to oxidize the fatty acid linoleic acid to the hydroperoxy fatty acid 13-(S)HPODE, resulting in the formation of a conjugated diene. The 15-LO inhibitors are incubated with 15-LO enzyme in the presence of linoleic acid substrate. The initial reaction is compared to an uninhibited (maximal) reaction to yield % inhibition. […] This prevents artificial nonenzyme lipid peroxidation and product breakdown in the sample. 13-HPODE is quantitated by comparing peak areas of individual samples with those from a standard curve generated using authentic 13-HODE. This assay is performed using 2U of rabbit reticulocyte 15-LO in the presence of 174 μM linoleic acid. The reaction is incubated for 15 minutes at 4° C. The total reaction volume is 100 μL in PBS containing 0.2% Na cholate.
Fifteen-lipoxygenase was obtained from phenylhydrazine-treated rabbits and purified per the method of Rapoport (Rapoport S. M., Schewe T., Wiesner R., et al. The lipoxygenase of reticulocytes. Purification, characterization, and biological dynamics of the lipoxygenase; its identity with the respiratory inhibitors of the reticulocyte. European Journal of Biochemistry, 1979;96:545-561). The following chemicals were purchased and used as received: linoleic acid (NUJCheck Prep), 13-HPODE (Biomol Research Labs), sodium cholate (Sigma), trimethyl phosphite (Fluka Chemicals).

SMILES	h15LO, value given as bare % (Table 2)	IC50 (Table 2)	also measured
COc1ccc(C(=O)Nc2ccccc2)cc1NCc1ccc(-c2ccccc2)cc1 [Example 236, 3-[(Biphenyl-4-ylmethyl)-amino]-4-methoxy-N-phenyl-benzamide]	64.09%		
COc1ccc(NC(=O)Nc2ccc(Cl)c(Cl)c2)cc1NC(=S)Nc1ccc(Cl)c([N+](=O)[O-])c1 [Example 175, 1-{3-[3-(4-Chloro-3-nitro-phenyl)-thioureido]-4-methoxy-phenyl}-3-(3,4-dichloro-phenyl)-urea]	52%		
COc1ccc(C(=O)Nc2ccccc2)cc1NCc1ccccc1C [Example 223, 4-Methoxy-3-(2-methyl-benzylamino)-N-phenyl-benzamide]		892 nM	
COc1ccc(NC(=O)c2ccc(F)c(F)c2)cc1NS(=O)(=O)c1cccc([N+](=O)[O-])c1 [Example 203, 3,4-Difluoro-N-[4-methoxy-3-(3-nitro-benzenesulfonylamino)-phenyl]-benzamide]	92.01%		
COc1ccc(C(=O)Nc2ccccc2)cc1NC(=S)Nc1ccc(Cl)c(C(F)(F)F)c1 [Example 73, 3-[3-(4-Chloro-3-trifluoromethylphenyl)-thioureido]-4-methoxy-N-phenyl-benzamide]		16 nM	
COc1ccc(C(=O)Nc2ccc(F)cc2)cc1NS(=O)(=O)c1ccc([N+](=O)[O-])cc1 [Example 191, 4-Methoxy-3-(4-nitro-benzenesulfonylamino)-N-(4-fluoro-phenyl)-benzamide]	96.99%		
COc1ccc(C(=O)Nc2ccccc2)cc1NCc1cccc(Cl)c1 [Example 231, 3-(3-Chloro-benzylamino)-4-methoxy-N-phenyl-benzamide]		224 nM	
O=C(Nc1ccc(F)c(NS(=O)(=O)c2cccs2)c1)c1ccc(F)c(F)c1 [Example 206, 3,4-Difluoro-N-[4-fluoro-3-(thiophene-2-sulfonylamino)-phenyl]-benzamide]	45.56%		
COc1ccc(C(=O)Nc2ccccc2)cc1NCc1cccc(C(F)(F)F)c1 [Example 269, 4-Methoxy-3-(3-trifluoromethyl-benzylamino)-N-phenyl-benzamide]		221 nM	
COc1ccc(NC(=O)c2ccc(F)c(F)c2)cc1NS(=O)(=O)c1ccc(C#N)cc1 [Example 204, 3,4-Difluoro-N-[3-(4-cyano-benzenesulfonylamino)-4-methoxy-phenyl]-benzamide]	89.54%		
COc1ccc(C(=O)Nc2ccc(F)cc2)cc1Nc1cc(Cl)cc(Cl)c1 [Example 154]	97.66%		
CCN(CC)c1ccc(CNc2cc(C(=O)Nc3ccccc3)ccc2OC)cc1 [Example 211, 3-(4-Diethylamino-benzylamino)-4-methoxy-N-phenyl-benzamide]		69 nM	
COc1ccc(C(=O)Nc2ccc(F)c(F)c2)cc1NC(=S)Nc1ccc(S(=O)(=O)[O-])cc1.[Na+] [Example 165, 4-{3-[5-(3,4-Difluoro-phenylcarbamoyl)-2-methoxy-phenyl]-thioureido}-benzenesulfonic Acid, Sodium Salt]	98.51%		
COc1ccc(C(=O)Nc2ccc(F)c(F)c2)cc1NCc1cccs1 [Example 258, 4-Methoxy-3-[(thiophen-2-ylmethyl)-amino]-N-(3,4-difluoro-phenyl)-benzamide]		35 nM	
O=C(Nc1ccccc1)c1cc(NC(=S)Nc2cc(Cl)cc(Cl)c2)ccc1F [Example 101, 5-[3-(3,5-Dichlorophenyl)-thioureido]-2-fluoro-N-phenyl-benzamide]			inhibition at 10 µM (0.25 h, Table 2, @ 10 μM, read-out: h15LO % @ 10 μM): 66%
COc1ccc(C(=O)Nc2ccc(F)c(F)c2)cc1NC(=S)Nc1cccc(C(=O)O)c1 [Example 162, 3-{3-[5-(3,4-Difluoro-phenylcarbamoyl)-2-methoxy-phenyl]-thioureido}-benzoic Acid]		55 nM	
COc1ccc(C(=O)Nc2ccccc2)cc1NCc1ccc(C)cc1 [Example 237, 4-Methoxy-3-(4-methyl-benzylamino)-N-phenyl-benzamide]	64%		

SMILES	h15LO, value given as bare % (Table 2)	IC50 (Table 2)	also measured
COc1ccc(C(=O)Nc2ccccc2)cc1NCc1ccc(O)c([N+](=O)[O-])c1 [Example 225, 3-(4-Hydroxy-3-nitro-benzylamino)-4-methoxy-N-phenyl-benzamide]	97.88%		
O=C(Nc1ccc(F)c(NC(=S)Nc2cc(Cl)cc(Cl)c2)c1)c1ccc(F)c(F)c1 [Example 170, N-{3-[3-(3,5-Dichloro-phenyl)-thioureido]-4-fluoro-phenyl}-3,4-difluoro-benzamide]	99.53%		
COc1ccc(C(=O)Nc2ccccc2)cc1NCc1ccc(C(C)(C)C)cc1 [Example 232, 3-(4-tert-Butyl-benzylamino)-4-methoxy-N-phenyl-benzamide]	80.36%		
COc1ccc(C(=O)Nc2ccccc2)cc1NS(=O)(=O)c1ccc([N+](=O)[O-])cc1 [Example 188, 4-Methoxy-3-(4-nitro-benzenesulfonylamino)-N-phenyl-benzamide]	97.24%		
COc1ccc(C(=O)Nc2ccc(F)cc2)cc1NC(=S)Nc1cccc(C(=O)O)c1 [Example 167, 3-{3-[5-(4-Fluoro-phenylcarbamoyl)-2-methoxy-phenyl]-thioureido}-benzoic Acid]	96.22%		
COc1ccc(C(=O)Nc2ccccc2)cc1CNS(=O)(=O)c1cc(Cl)cc(Cl)c1 [Example 249, 3-[(3,5-Dichloro-benzenesulfonylamino)-methyl]-4-methoxy-N-phenyl-benzamide]		58 nM	
Cc1ccc(C(=O)Nc2ccccc2)cc1Nc1ccccc1 [Example 38, 3-Phenylamino-4-methyl-N-phenyl-benzamide]		> 3000 nM	
CCCOc1ccc(CNc2cc(C(=O)Nc3ccccc3)ccc2OC)cc1 [Example 235, 4-Methoxy-3-(4-propoxy-benzylamino)-N-phenyl-benzamide]	67.26%		
COc1ccc(NC(=O)Nc2ccc(Cl)c(Cl)c2)cc1NC(=S)Nc1cccc(C(=O)O)c1 [Example 173, 3-(3-{5-[3-(3,4-Dichloro-phenyl}-ureido]-2-methoxy-phenyl)-thioureido)-benzoic Acid]	55%		
COc1ccc(C(=O)Nc2ccccc2)cc1NCc1ccc(OC(C)=O)cc1 [Example 220, Acetic acid 4-[(2-methoxy-5-phenylcarbamoyl-phenylamino)-methyl]-phenyl Ester]		509 nM	
COc1ccc(NC(=O)c2ccccc2)cc1N [Example 21, N-(3-Amino-4-methoxyphenyl)-benzamide]			IC50 (Table 1): 2130 nM
COc1ccc(C(=O)Nc2ccc(F)c(F)c2)cc1NCc1ccccc1 [Example 227, 3-Benzylamino-4-methoxy-N-(3,4-difluoro-phenyl)-benzamide]	95.74%		
COc1ccc(NC(=O)c2ccc(F)c(F)c2)cc1NC(=S)Nc1ccc(C(=O)O)cc1 [Example 168, 4-{3-[5-(3,4-Difluoro-benzoylamino)-2-methoxy-phenyl]-thioureido}-benzoic Acid acid]		109 nM	
COc1ccc(C(=O)Nc2ccccc2)cc1NC(=S)Nc1cccc([N+](=O)[O-])c1 [Example 254, 4-Methoxy-3-[3-(3-nitro-phenyl)-thioureido]-N-phenyl-benzamide]	51%		
CCCCCCCCCCCCS(=O)(=O)Nc1cc(C(=O)Nc2ccccc2)ccc1OC [Example 177, 3-(Dodecane-1-sulfonylamino)-4-methoxy-N-phenyl-benzamide]		2 nM	
CCOC(=O)c1cccc(NC(=O)c2ccc(OC)c(NCc3cccs3)c2)c1 [Example 263, 3-{4-Methoxy-3-[(thiophen-2-ylmethyl)-amino]-benzoylamino}-benzoic Acid Ethyl Ester]	53.51%		
COc1ccc(C(=O)Nc2ccc(F)cc2)cc1NCc1cccs1 [Example 260, 4-Methoxy-3-[(thiophen-2-ylmethyl)-amino]-N-(4-fluoro-phenyl)-benzamide]		186 nM	
